How the values were obtained:
Alpha1A = molecular target: T1, Alpha1A (Homo sapiens, UniProt P35348); assay: PDSP primary binding Alpha1A; conditions: 1.5 h; primary binding, 10,000 nM; last figure of the line = mean of the 4 before it; read-out: Alpha1A, PDSP raw data, mean
T1 construct: purchased NIMH Psychoactive Drug Screening Program (PDSP)
T1 sequence (P35348 1-466): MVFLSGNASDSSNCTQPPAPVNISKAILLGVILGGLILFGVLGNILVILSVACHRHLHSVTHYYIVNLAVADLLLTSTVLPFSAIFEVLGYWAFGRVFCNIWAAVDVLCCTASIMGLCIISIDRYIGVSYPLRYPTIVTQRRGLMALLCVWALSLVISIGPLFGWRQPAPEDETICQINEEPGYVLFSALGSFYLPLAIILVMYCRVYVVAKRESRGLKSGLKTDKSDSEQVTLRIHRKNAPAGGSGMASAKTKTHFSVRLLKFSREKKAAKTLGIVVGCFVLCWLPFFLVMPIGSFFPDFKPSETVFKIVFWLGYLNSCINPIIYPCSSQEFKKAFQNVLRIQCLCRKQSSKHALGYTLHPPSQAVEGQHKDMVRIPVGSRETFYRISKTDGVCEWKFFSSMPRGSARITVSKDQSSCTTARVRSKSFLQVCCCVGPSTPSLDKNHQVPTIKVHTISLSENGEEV
Method: (§1) To determine if any off-target receptor-binding effects are present, all the novel ligands were sent to the National Institute of Mental Health (NIMH), Psychoactive Drug Screening Program (PDSP). The ligands were screened over a panel of 47 receptors, ion channels, and transporters to determine any other possible interactions with […]. The hERG-binding was also determined. […] No binding of the test compounds to calcium channels was observed. […] It is necessary to screen the compounds for hERG-binding during the early process of drug discovery. The unintentional binding of many drugs to hERG can cause blockade of hERG K+ channels in the heart, which can cause many side effects including cardiac arrhythmias and sudden death. […] All of the α5 imidazodiazepines were tested for hERG-binding.
(§2) The NIMH PDSP assay protocol book [https://kidbdev.med.unc.edu/databases/PDSP%20Protocols%20II%202013-03-28.pdf accessed on 23 April 2023]. describes the protocols for primary and secondary radio-ligand binding assays. These assays were carried out in a final volume of 125 µL per well in the appropriate binding buffer.
(§3) The binding of a ligand to a receptor, ion channel, or transporter was determined in the […] of 10 µM of the appropriate reference compound. […] Plates were incubated in the dark for 90 min at rt, and the reactions were stopped by vacuum filtration onto 0.3% polyethyleneimine (PEI) soaked 96-well filter mats using a 96-well Filtermateharvester. This was followed by three washes with cold PBS buffer. Radioactivity was then counted on a Microbeta counter. Nonlinear regression was used to analyze the data with N = 6 replicates.

Kainate (Rat Brain) = assay: PDSP primary binding Kainate (Rat Brain); conditions: primary binding, 10,000 nM; last figure of the line = mean of the 4 before it
Method: as §1, §2, §3

5-HT2B = molecular target: T2, 5-HT2B (Homo sapiens, UniProt P41595); assay: PDSP primary binding 5-HT2B; conditions: 1.5 h; primary binding, 10,000 nM; last figure of the line = mean of the 4 before it; read-out: 5-HT2B, PDSP raw data, mean
T2 construct: purchased NIMH Psychoactive Drug Screening Program (PDSP)
Method: as §1, §2, §3

Alpha2Beta4 = molecular target: T3, Alpha2Beta4 (Rattus norvegicus, UniProt P12389+P12392); assay: PDSP primary binding Alpha2Beta4; conditions: primary binding, 10,000 nM; last figure of the line = mean of the 4 before it; read-out: Alpha2Beta4, PDSP raw data, mean
T3 construct: purchased NIMH Psychoactive Drug Screening Program (PDSP)
Method: as §1, §2, §3

H2 = molecular target: T4, H2 (Homo sapiens, UniProt P25021); assay: PDSP primary binding H2; conditions: primary binding, 10,000 nM; last figure of the line = mean of the 4 before it; read-out: H2, PDSP raw data, mean
T4 construct: purchased NIMH Psychoactive Drug Screening Program (PDSP)
Method: as §1, §2, §3

D2 = molecular target: T5, D2 (Homo sapiens, UniProt P14416); assay: PDSP primary binding D2; conditions: 1.5 h; primary binding, 10,000 nM; last figure of the line = mean of the 4 before it; read-out: D2, PDSP raw data, mean
T5 construct: purchased NIMH Psychoactive Drug Screening Program (PDSP)
Method: as §1, §2, §3

Alpha3Beta2 = molecular target: T6, Alpha3Beta2 (Rattus norvegicus, UniProt P04757+P12390); assay: PDSP primary binding Alpha3Beta2; conditions: primary binding, 10,000 nM; last figure of the line = mean of the 4 before it; read-out: Alpha3Beta2, PDSP raw data, mean
T6 construct: purchased NIMH Psychoactive Drug Screening Program (PDSP)
Method: as §1, §2, §3

hERG channels = molecular target: T7, hERG channels (Homo sapiens, UniProt Q12809); assay: PDSP radioligand binding at hERG; conditions: primary binding, 10,000 nM; last figure of the line = mean of the 4 before it
T7 construct: purchased NIMH Psychoactive Drug Screening Program (PDSP)
Method: as §1, §2, §3

NMDA = assay: PDSP primary binding NMDA; conditions: primary binding, 10,000 nM; last figure of the line = mean of the 4 before it
Method: as §1, §2, §3

M4 D = molecular target: T8, M4 D (Homo sapiens, UniProt P08173, A203G/Y113C); assay: PDSP primary binding M4 D; conditions: primary binding, 10,000 nM; last figure of the line = mean of the 4 before it; read-out: M4 D, PDSP raw data, mean
T8 construct: purchased NIMH Psychoactive Drug Screening Program (PDSP)
T8 sequence (P08173 1-479 Y113C/A203G): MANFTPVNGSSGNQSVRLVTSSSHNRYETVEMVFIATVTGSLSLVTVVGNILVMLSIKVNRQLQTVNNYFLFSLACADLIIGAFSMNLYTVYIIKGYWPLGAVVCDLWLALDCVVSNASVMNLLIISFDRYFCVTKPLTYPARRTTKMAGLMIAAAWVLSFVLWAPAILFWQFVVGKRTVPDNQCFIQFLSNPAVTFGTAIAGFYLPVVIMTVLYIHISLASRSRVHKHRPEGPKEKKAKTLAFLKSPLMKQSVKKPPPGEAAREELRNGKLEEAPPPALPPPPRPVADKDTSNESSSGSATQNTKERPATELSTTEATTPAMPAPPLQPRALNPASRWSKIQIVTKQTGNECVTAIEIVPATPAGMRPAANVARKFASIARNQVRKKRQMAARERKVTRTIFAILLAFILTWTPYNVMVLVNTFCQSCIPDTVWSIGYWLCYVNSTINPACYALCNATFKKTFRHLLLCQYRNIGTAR
Method: as §1, §2, §3

Alpha7 = assay: PDSP primary binding Alpha7; conditions: primary binding, 10,000 nM; last figure of the line = mean of the 4 before it
Method: as §1, §2, §3

M3D = molecular target: T9, M3D (Homo sapiens, UniProt P20309, A239G/Y149C); assay: PDSP primary binding M3D; conditions: primary binding, 10,000 nM; last figure of the line = mean of the 4 before it; read-out: M3D, PDSP raw data, mean
T9 construct: purchased NIMH Psychoactive Drug Screening Program (PDSP)
Method: as §1, §2, §3

T4 sequence (P25021 whole entry): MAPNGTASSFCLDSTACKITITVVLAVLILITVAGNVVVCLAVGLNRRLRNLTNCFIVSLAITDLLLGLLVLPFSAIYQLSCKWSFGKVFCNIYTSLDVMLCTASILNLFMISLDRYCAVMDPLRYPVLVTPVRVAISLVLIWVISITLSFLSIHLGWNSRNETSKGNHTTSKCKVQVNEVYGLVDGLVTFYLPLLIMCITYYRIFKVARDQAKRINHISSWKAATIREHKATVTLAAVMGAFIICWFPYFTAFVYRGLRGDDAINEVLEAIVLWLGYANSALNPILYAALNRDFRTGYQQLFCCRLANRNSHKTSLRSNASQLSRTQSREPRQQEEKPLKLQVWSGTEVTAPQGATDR
T6 sequence (P04757 26-499): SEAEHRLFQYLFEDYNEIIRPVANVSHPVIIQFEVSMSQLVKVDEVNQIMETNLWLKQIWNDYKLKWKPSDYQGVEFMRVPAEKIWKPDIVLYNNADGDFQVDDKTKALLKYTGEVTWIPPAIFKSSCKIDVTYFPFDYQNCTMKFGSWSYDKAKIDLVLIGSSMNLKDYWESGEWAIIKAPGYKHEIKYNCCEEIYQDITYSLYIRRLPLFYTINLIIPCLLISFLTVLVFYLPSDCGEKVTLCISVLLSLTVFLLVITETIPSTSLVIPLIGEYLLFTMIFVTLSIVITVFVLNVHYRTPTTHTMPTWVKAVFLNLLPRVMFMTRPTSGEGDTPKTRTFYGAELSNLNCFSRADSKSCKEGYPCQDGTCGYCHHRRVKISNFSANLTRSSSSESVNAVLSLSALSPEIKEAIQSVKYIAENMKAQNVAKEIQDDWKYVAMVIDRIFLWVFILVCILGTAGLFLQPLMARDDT
T6 sequence (P12390 25-500): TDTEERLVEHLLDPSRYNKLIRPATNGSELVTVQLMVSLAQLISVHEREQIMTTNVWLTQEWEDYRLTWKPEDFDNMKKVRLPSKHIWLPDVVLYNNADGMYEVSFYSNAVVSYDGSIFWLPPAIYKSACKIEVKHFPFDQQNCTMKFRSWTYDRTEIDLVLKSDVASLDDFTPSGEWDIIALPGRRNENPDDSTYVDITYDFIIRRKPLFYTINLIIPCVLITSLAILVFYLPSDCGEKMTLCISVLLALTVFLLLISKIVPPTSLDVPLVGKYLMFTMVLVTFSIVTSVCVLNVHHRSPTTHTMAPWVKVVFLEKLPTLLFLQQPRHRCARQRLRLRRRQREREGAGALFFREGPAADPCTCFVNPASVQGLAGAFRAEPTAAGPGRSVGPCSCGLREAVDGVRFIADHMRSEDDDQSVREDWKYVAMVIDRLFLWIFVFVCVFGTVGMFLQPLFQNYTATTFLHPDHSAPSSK
T7 sequence (Q12809 whole entry): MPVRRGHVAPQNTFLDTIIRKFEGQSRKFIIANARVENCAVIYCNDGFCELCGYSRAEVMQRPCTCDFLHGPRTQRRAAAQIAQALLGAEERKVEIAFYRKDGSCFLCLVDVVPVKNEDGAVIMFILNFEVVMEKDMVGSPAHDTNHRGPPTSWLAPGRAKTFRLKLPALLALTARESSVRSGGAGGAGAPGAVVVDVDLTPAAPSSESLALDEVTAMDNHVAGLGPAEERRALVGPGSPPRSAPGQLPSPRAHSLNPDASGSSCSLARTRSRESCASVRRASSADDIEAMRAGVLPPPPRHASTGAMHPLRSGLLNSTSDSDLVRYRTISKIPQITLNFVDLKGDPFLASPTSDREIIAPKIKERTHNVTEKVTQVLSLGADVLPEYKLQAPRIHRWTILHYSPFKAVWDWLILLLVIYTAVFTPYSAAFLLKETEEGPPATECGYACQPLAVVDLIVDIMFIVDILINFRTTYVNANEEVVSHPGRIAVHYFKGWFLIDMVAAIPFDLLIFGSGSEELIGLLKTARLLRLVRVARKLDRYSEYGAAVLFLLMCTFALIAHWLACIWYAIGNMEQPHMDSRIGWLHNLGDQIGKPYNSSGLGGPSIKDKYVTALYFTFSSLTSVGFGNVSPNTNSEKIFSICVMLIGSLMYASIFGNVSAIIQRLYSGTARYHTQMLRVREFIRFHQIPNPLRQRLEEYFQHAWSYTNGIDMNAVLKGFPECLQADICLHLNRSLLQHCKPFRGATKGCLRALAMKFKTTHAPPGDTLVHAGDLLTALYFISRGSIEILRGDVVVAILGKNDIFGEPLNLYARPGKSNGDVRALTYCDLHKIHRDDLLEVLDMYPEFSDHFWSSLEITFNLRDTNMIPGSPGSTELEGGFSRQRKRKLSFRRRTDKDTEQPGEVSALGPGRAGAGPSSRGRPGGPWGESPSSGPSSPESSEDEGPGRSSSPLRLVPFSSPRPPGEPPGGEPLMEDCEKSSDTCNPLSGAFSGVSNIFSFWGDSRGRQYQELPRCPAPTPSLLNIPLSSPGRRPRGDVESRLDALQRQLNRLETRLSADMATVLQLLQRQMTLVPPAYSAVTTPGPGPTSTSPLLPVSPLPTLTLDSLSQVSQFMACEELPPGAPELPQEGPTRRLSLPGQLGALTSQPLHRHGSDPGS
T2 sequence (P41595 whole entry): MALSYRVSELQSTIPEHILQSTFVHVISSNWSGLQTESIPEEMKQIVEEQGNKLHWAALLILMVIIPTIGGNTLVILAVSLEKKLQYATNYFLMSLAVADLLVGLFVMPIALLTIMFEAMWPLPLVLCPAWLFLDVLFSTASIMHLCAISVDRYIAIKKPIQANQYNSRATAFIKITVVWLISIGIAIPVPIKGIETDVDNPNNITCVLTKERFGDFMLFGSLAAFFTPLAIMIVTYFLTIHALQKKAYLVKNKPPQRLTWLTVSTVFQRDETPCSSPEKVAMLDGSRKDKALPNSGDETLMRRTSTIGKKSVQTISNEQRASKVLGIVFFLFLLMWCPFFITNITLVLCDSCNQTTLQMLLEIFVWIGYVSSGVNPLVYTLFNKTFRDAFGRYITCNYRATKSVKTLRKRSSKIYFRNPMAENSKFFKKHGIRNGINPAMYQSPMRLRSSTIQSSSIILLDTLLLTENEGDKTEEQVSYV
T3 sequence (P12389 28-511): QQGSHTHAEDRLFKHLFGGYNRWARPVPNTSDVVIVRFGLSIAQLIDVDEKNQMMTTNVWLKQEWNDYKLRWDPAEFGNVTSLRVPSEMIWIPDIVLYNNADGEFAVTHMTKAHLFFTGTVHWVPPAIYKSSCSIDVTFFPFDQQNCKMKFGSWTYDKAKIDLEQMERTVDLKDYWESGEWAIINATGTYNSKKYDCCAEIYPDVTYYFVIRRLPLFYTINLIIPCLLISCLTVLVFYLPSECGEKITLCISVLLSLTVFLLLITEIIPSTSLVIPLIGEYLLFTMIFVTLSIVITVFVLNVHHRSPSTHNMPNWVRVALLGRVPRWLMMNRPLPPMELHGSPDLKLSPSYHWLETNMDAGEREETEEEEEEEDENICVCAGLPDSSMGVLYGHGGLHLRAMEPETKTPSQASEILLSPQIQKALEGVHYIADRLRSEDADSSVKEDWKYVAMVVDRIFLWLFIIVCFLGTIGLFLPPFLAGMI
T3 sequence (P12392 21-495): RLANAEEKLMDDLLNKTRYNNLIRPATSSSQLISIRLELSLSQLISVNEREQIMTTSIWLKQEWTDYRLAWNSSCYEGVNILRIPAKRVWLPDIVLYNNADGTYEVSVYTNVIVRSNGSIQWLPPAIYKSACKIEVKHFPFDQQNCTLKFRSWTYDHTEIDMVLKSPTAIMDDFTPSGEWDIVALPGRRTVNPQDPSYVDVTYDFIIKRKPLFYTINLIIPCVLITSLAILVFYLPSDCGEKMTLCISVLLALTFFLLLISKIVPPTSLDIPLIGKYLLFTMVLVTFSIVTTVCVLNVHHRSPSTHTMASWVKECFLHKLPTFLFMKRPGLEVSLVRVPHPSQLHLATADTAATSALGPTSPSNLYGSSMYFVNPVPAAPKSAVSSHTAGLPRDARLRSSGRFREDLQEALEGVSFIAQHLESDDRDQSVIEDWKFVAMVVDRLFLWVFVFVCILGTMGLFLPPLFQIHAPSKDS
T5 sequence (P14416 whole entry): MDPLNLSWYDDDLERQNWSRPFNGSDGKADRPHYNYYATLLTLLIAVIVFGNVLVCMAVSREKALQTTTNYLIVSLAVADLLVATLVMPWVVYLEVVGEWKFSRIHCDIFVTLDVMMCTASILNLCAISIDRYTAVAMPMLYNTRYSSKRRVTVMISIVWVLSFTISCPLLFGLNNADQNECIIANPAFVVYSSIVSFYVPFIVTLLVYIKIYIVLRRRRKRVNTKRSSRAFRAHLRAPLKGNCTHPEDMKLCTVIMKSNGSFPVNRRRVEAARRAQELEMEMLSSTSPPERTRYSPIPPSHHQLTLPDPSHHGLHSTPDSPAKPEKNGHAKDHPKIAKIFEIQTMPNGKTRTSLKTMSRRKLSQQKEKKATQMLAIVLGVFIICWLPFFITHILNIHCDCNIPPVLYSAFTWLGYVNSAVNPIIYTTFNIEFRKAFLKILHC
T9 sequence (P20309 whole entry Y149C/A239G): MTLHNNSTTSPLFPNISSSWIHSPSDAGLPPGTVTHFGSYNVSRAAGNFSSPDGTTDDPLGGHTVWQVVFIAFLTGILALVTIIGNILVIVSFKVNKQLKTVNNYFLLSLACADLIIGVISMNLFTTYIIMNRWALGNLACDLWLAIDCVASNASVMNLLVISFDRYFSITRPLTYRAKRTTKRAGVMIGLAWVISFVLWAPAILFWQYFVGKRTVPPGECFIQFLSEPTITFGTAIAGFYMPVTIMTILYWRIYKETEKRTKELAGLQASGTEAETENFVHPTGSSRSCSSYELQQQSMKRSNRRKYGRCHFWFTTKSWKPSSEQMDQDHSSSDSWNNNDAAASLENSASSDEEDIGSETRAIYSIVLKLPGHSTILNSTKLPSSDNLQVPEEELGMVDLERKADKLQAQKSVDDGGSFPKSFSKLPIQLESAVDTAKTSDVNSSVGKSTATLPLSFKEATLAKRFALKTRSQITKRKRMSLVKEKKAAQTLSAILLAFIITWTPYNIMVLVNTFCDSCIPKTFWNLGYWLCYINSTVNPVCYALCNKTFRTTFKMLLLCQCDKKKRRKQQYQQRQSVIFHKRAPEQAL

Row | Compound | inhibition at 10 µM (Alpha1A) | Kainate (Rat Brain), PDSP raw data, mean (Kainate (Rat Brain)) | inhibition at 10 µM (5-HT2B) | inhibition at 10 µM (Alpha2Beta4) | inhibition at 10 µM (H2) | inhibition at 10 µM (D2) | inhibition at 10 µM (Alpha3Beta2) | HERG, PDSP raw data, mean (hERG channels) | NMDA, PDSP raw data, mean (NMDA) | inhibition at 10 µM (M4 D) | Alpha7, PDSP raw data, mean (Alpha7) | inhibition at 10 µM (M3D)
1 | C[C@H]1N=C(c2ccccc2F)c2cc(-c3ccccc3)ccc2-n2cnc(C(=O)N(C)C)c21 [Compound 5, (R)-6-(2′-Fluorophenyl)-N,N,4-trimethyl-8-phenyl-4H-benzo[f]imidazo[1,5-a][1,4]diazepine-3-carboxamide] | -4.47% | 3.43% | 26.5% | 4.82% | -1.42% | 0.27% | 2.14% | -0.48% | 43.17% | 27.2% | -18.33% | 4.84%
2 | C#Cc1ccc2c(c1)C(c1ccccc1Cl)=N[C@H](C)c1c(C(=O)NC)ncn1-2 [Compound 21, (R)-6-(2′-Chlorophenyl)-8-ethynyl-N,4-dimethyl-4H-benzo[f]imidazo[1,5-a][1,4]diazepine-3-carboxamide] | -5.44% | -4.58% | -5.07% | 7.67% | -2.07% | -4.19% | 3.21% | -5.73% | 77.15% | 1.13% | -10.85% | 0.48%
3 | C#Cc1ccc2c(c1)C(c1ccccn1)=N[C@@H](C)c1c(C(=O)NC)ncn1-2 [Compound 23, (S)-8-Ethynyl-N,4-dimethyl-6-(pyridin-2′-yl)-4H-benzo[f]imidazo[1,5-a][1,4]diazepine-3-carboxamide] | -5.28% | 37.08% | -3.33% | 4.5% | -23.3% | -4.79% | 7.13% | -4.24% | 89.17% | 50.5% | -5.28% | 9.08%
4 | C#Cc1ccc2c(c1)C(c1ccccc1Cl)=N[C@H](C)c1c(C(=O)N(C)CC)ncn1-2 [Compound 29] | 4.97% | 16.79% | 30% | 3.06% | -0.28% | -1.58% | 3.52% | -1.55% | 98.03% | 46.2% | -2.05% | 6.78%
5 | C#Cc1ccc2c(c1)C(c1ccccn1)=N[C@@H](C)c1c(C(=O)N(C)C)ncn1-2 [Compound 31, (S)-8-Ethynyl-N,N,4-trimethyl-6-(pyridin-2′-yl)-4H-benzo[f]imidazo[1,5-a][1,4]diazepine-3-carboxamide] | -10.5% | 23.99% | -3.38% | 6.58% | -12.1% | 3.47% | 3.57% | 0.95% | 17.3% | 56.8% | -3.44% | 6.59%
6 | C#Cc1ccc2c(c1)C(c1ccccc1F)=N[C@H](C)c1c(C(=S)N(C)C)ncn1-2 [Compound 33, (R)-8-Ethynyl-6-(2′-fluorophenyl)-N,N,4-trimethyl-4H-benzo[f]imidazo[1,5-a][1,4]diazepine-3-carbothioamide] | -4.47% | 3.43% | 26.5% | 4.82% | -1.42% | 0.27% | 2.14% | -0.48% | 43.17% | 27.2% | -18.33% | 4.84%
7 | CCc1noc(-c2ncn3c2[C@@H](C)N=C(c2ccccc2F)c2cc(-c4ccccc4)ccc2-3)n1 [Compound 35, (R)-3-Ethyl-5-(6-(2′-fluorophenyl)-4-methyl-8-phenyl-4H-benzo[f]imidazo[1,5-a][1,4]diazepin-3-yl)-1,2,4-oxadiazole] | 20.8% | 33.32% | 13.8% | 10.7% | -10.1% | 7.47% | 5.43% | 37.34% | 37.76% | 15.7% | -23.18% | 4.49%
8 | CCc1noc(-c2ncn3c2[C@@H](C)N=C(c2ccccc2F)c2cc(Cl)ccc2-3)n1 [Compound 36, (R)-5-(8-Chloro-6-(2′-fluorophenyl)-4-methyl-4H-benzo[f]imidazo[1,5-a][1,4]diazepin-3-yl)-3-ethyl-1,2,4-oxadiazole] | -0.34% | 42.86% | 3.47% | 10.9% | 5.61% | 3.17% | 6.01% | -1.15% | 55.6% | 26.6% | -13.86% | -2.01%
9 | CC(C)c1noc(-c2ncn3c2[C@@H](C)N=C(c2ccccc2F)c2cc(Cl)ccc2-3)n1 [Compound 37, (R)-5-(8-Chloro-6-(2′-fluorophenyl)-4-methyl-4H-benzo[f]imidazo[1,5-a][1,4]diazepin-3-yl)-3-isopropyl-1,2,4-oxadiazole] | -8.38% | 35.39% | 8.56% | -5.48% | 1.66% | 18.2% | 5.77% | 20.73% | 54.13% | -19.7% | 21.26% | -23.4%

From publication PMC10303271, “Synthesis and Receptor Binding Studies of α5 GABAAR Selective Novel Imidazodiazepines Targeted for Psychiatric and Cognitive Disorders” (Molecules, 2023)
